Laboratory results from patent US20140377219A1, “HIV INHIBITORS” (New york Blood Center, Inc., priority 2011, published 2014).
Read-outs that look alike come from different tables or passages of the source.

Key:
TZM-bl cells = test: Cytotoxicity in TZM-bl cells (XTT); type: cell-based
Method in brief: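 TZM-bl cells (10^5/ml) combined with equal volumes of compound at graded concentrations and incubated 3 days at 37° C. Viability measured colorimetrically by XTT tetrazolium dye reduction.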

[1] = test system: Panel C env Du422, clone 1 (SVPC5); type: cell-based; conditions: TZM-bl, read-out: IC50 (μM) ± S.D., antiviral activity against HIV-1 envelope pseudoviruses
[2] = test system: Panel C env ZM-197M.PB7, SVPC6; type: cell-based; conditions: TZM-bl, read-out: IC50 (μM) ± S.D., antiviral activity against HIV-1 envelope pseudoviruses
[3] = test system: Panel C env ZM-214M.PL15, SVPC7; type: cell-based; conditions: TZM-bl, read-out: IC50 (μM) ± S.D., antiviral activity against HIV-1 envelope pseudoviruses
[4] = test system: Panel C env ZM-249M.PL1, SVPC10; type: cell-based; conditions: TZM-bl, read-out: IC50 (μM) ± S.D., antiviral activity against HIV-1 envelope pseudoviruses
[5] = test system: Panel C env ZM-53M.PB12, SVPC11; type: cell-based; conditions: TZM-bl, read-out: IC50 (μM) ± S.D., antiviral activity against HIV-1 envelope pseudoviruses
[6] = test system: Panel C env ZM-109F.PB4, SVPC13; type: cell-based; conditions: TZM-bl, read-out: IC50 (μM) ± S.D., antiviral activity against HIV-1 envelope pseudoviruses
[7] = test system: Panel C env CAP-210.2.00.E8, SVPC17; type: cell-based; conditions: TZM-bl, read-out: IC50 (μM) ± S.D., antiviral activity against HIV-1 envelope pseudoviruses
[8] = test system: Panel B env SC422661, clone B (SVPB8); type: cell-based; conditions: TZM-bl, read-out: IC50 (μM) ± S.D., antiviral activity against HIV-1 envelope pseudoviruses
[9] = test system: laboratory-adapted HIV-1 IIIB strain
Description: In brief, 1×10^4 MT-2 cells were infected with HIV-1 at 100 TCID50 (50% tissue culture infective dose) (0.01MOI) in 200 μl medium in the presence or absence of small molecules at graded concentrations and incubated overnight. The culture supernatants were then removed and replaced with fresh media. On the fourth day post-infection, 100 μl of culture supernatants were collected from each well, mixed with equal volume of 5% Triton X-100 and tested for p24 antigen by sandwich-ELISA. The percent inhibition of p24 production and IC50 values were calculated by the GraphPad Prism software (GraphPad Software Inc.).

HIV-1 BaL = test: Neutralization assay in PBMC (p24 ELISA); conditions: read-out: IC50 (μM) ± S.D., inhibitory activity on infection, BaL, subtype B, R5, laboratory strain
Description: (§1) PBMCs were isolated from the blood of healthy donors at the New York Blood Center by standard density-gradient centrifugation using Histopaque-1077 (Sigma-Aldrich). The cells were cultured at 37° C. for 2 h. Non-adherent cells were collected and resuspended at 5×10^6 cells/ml in RPMI-1640 medium containing 10% (v/v) fetal bovine serum, 5 μg/ml of phytohemagglutinin, and 100 U/ml of IL-2 (Sigma-Aldrich), followed by incubation at 37° C. for three days.

HIV-1 89.6 = test: Neutralization assay in PBMC (p24 ELISA); conditions: read-out: IC50 (μM) ± S.D., inhibitory activity on infection; 89.6, subtype B, PBMC, R5X4, laboratory strain
Description: (§2) The inhibitory activity of small molecules on infection by primary HIV-1 isolates was determined. PBMCs were isolated from the blood of healthy donors at the New York Blood Center by standard density-gradient centrifugation using Histopaque-1077 (Sigma-Aldrich). The cells were cultured at 37° C. for 2 h. Non-adherent cells were collected and resuspended at 5×10^6 cells/ml in RPMI-1640 medium containing 10% (v/v) fetal bovine serum, 5 μg/ml of phytohemagglutinin, and 100 U/ml of IL-2 (Sigma-Aldrich), followed by incubation at 37° C. for three days.

HIV-1 SF162 = test: Neutralization assay in PBMC (p24 ELISA); conditions: read-out: IC50 (μM) ± S.D., inhibitory activity on infection; SF162, subtype B, PBMC, R5, laboratory strain
Description: as §1

[10] = test system: primary HIV-1 isolate 93MW959 (clade C, R5); test: Neutralization assay in PBMC (p24 ELISA); conditions: read-out: IC50 (μM) ± S.D., inhibitory activity on infection, 93MW959, subtype C
Description: as §2

[11] = test system: primary HIV-1 isolate 93BR029 (clade F, R5); test: Neutralization assay in PBMC (p24 ELISA); conditions: read-out: IC50 (μM) ± S.D., inhibitory activity on infection; 93BR029, subtype F, PBMC, R5, primary isolate
Description: as §1

[12] = test system: primary HIV-1 isolate RU570 (clade G, R5); test: Neutralization assay in PBMC (p24 ELISA); conditions: read-out: IC50 (μM) ± S.D., inhibitory activity on infection; RU570, subtype G, PBMC, R5, primary isolate
Description: as §1

[13] = test system: primary HIV-1 isolate 92UG031 (subtype A, R5); test: Neutralization assay in PBMC (p24 ELISA); conditions: read-out: IC50 (μM) ± S.D., inhibitory activity on infection; 92UG031, subtype A, PBMC, R5, primary isolate
Description: as §2

[14] = test system: primary HIV-1 isolate 93IN101 (subtype C, R5); test: Neutralization assay in PBMC (p24 ELISA); conditions: read-out: IC50 (μM) ± S.D., inhibitory activity on infection; 93IN101, subtype C, PBMC, R5, primary isolate
Description: as §2

[15] = test system: primary HIV-1 isolate 93TH060 (subtype E, R5); test: Neutralization assay in PBMC (p24 ELISA); conditions: read-out: IC50 (μM) ± S.D., inhibitory activity on infection; 93TH060, subtype E, PBMC, R5, primary isolate
Description: as §2

[16] = test system: primary HIV-1 isolate BCF02 (Group 0, R5); test: Neutralization assay in PBMC (p24 ELISA); conditions: read-out: IC50 (μM) ± S.D., inhibitory activity on infection; BCF02, Group 0, PBMC, R5, primary isolate
Description: as §2

[17] = test system: AZT-resistant (AZT-R) HIV-1 strain; test: Multi-cycle neutralization assay in MT-2 cells; conditions: read-out: IC50 (μM) ± S.D., inhibitory activity on infection; AZT-R, subtype B, MT-2, X4, RT-resistant isolate
HIV-1 RF = test: Multi-cycle neutralization assay in MT-2 cells; conditions: read-out: IC50 (μM) ± S.D., inhibitory activity on infection; RF, subtype B, MT-2, R5X4, laboratory strain
[18] = test system: HIV-1 RF/L-323-12-3 (protease resistant isolate); test: Multi-cycle neutralization assay in MT-2 cells; conditions: read-out: IC50 (μM) ± S.D., inhibitory activity on infection; HIV-1 RF/L-323-12-3, subtype B, MT-2, X4, protease resistant isolate
[19] = test system: Panel C env Du172, clone 17 (SVPC4); type: cell-based; conditions: TZM-bl, read-out: IC50 (μM) ± S.D., antiviral activity against HIV-1 envelope pseudoviruses
[20] = test system: Panel C env ZM-135M.PL10a, SVPC15; type: cell-based; conditions: TZM-bl, read-out: IC50 (μM) ± S.D., antiviral activity against HIV-1 envelope pseudoviruses
[21] = TZM-bl cells, XTT, 3 days, read-out: TZM-bl cells CC50 (μM ± SD)
[22] = at the dose given as CC50 bound
[23] = read-out: IC50 (μM) ± S.D., inhibitory activity on infection, IIIB, subtype B, MT-2, X4, laboratory strain
[24] = read-out: MT-2 Cells IC50 (μM ± SD), multi-cycle assay, MT-2 cells, HIV-1 IIIB

Row | Compound | IC50 [1] [µM] | IC50 [2] [µM] | IC50 [3] [µM] | IC50 [4] [µM] | IC50 [5] [µM] | IC50 [6] [µM] | IC50 [7] [µM] | IC50 [8] [µM] | IC50 [9, 23] [µM] | IC50 [9, 24] [µM] | IC50 (HIV-1 BaL) [µM] | IC50 (HIV-1 89.6) [µM] | IC50 (HIV-1 SF162) [µM] | IC50 [10] [µM] | IC50 [11] [µM] | IC50 [12] [µM] | IC50 [15] [µM] | IC50 [17] [µM] | IC50 (HIV-1 RF) [µM] | IC50 [18] [µM] | also measured
1 | Cc1ccc(NC(=O)C(=O)NC(c2nc(C)c(CO)s2)C2CCCCN2)cc1F.Cl (centres unmarked) [Compound 28, N^1-(3-fluoro-4-methylphenyl)-N^2-((5-(hydroxymethyl)-4-methylthiazol-2-yl)(piperidin-2-yl)methyl)oxalamide.HCl] | > 42 | > 42 | > 42 | > 42 | > 42 | > 42 | > 42 | 2.5 ± 0.3 | 3.7 ± 0.7 | 5.3 ± 0.5 | 23.7 ± 0.3 | 3.9 ± 0.5 | 8.1 ± 1.2 | > 42.5 | 5.2 ± 1.1 | 15.7 ± 0.2 | 9.9 ± 1.8 | 5.5 ± 0.7 | 11 ± 0.6 | 4.8 ± 0.9 | CC50 (TZM-bl cells; [21]): > 88 µM; % toxicity at that dose (number in parenthesis), TZM-bl cells (TZM-bl cells; [22]): 0%; IC50 [13]: 13.4 ± 1.2 µM; IC50 [14]: > 85 µM; IC50 [16]: > 85 µM
2 | Cc1nc(C(NC(=O)C(=O)Nc2ccc(Cl)cc2)C2CCCCN2)sc1CO.Cl (centres unmarked) [Compound 6, N^1-(4-chlorophenyl)-N^2-((5-(hydroxymethyl)-4-methylthiazol-2-yl)(piperidin-2-yl)methyl)oxalamide.HCl] | 15.9 ± 0.4 | > 21 | > 21 | 1.5 ± 0.6 | 2.4 ± 0.2 | 1.2 ± 0.2 | 15.1 ± 1.5 | 2.3 ± 0.2 | 4.7 ± 0.6 | 4.7 ± 0.6 | 35.8 ± 1.2 | – | 12.7 ± 0.7 | > 43.5 | 8 ± 1.3 | 8.5 ± 0.8 | 7.2 ± 0.6 | 4.4 ± 1.1 | 9.6 ± 0.8 | 14.7 ± 2.3 | % toxicity at that dose (number in parenthesis), TZM-bl cells (TZM-bl cells): 10%; CC50 (TZM-bl cells): > 22 µM; IC50 [19]: 3 ± 0.38 µM; IC50 [20]: 0.73 ± 0.13 µM; IC50 [13]: 9.3 ± 0.7 µM; IC50 [14]: > 87 µM; IC50 [16]: ~87 µM
3 | CC1(C)CC(NC(=O)C(=O)Nc2ccc(Cl)cc2)CC(C)(C)N1 [NBD-556, reference compound] | 11.8 ± 2.9 | 7.9 ± 0.9 | 6.5 ± 1.3 | 6.1 ± 1.7 | 13.4 ± 0.06 | 10.4 ± 3.5 | 13.3 ± 1.3 | – | 6.5 ± 0.1 | 8 ± 0.2 | ≥ 118 | 4.8 ± 1 | 48.9 ± 7.3 | 57.2 ± 8.7 | 40 ± 10.6 | 19.5 ± 2.3 | > 45 | 58 ± 14.3 | 18.7 ± 1.3 | > 59 | CC50 (TZM-bl cells; [21]): > 60 µM; % toxicity at that dose (number in parenthesis), TZM-bl cells (TZM-bl cells; [22]): 10%; IC50 [19]: 4.2 ± 0.23 µM; IC50 [20]: 1.5 ± 0.01 µM
4 | Cc1nc(C(NC(=O)C(=O)Nc2ccc(Cl)c(F)c2)C2CCCCN2)sc1CCO.Cl (centres unmarked) [Compound 39, N^1-(4-chloro-3-fluorophenyl)-N^2-((5-(2-hydroxyethyl)-4-methylthiazol-2-yl)(piperidin-2-yl)methyl)oxalamide.HCl] | 2.5 ± 0.1 | 2.3 ± 0.2 | 2.9 ± 0.4 | 2.5 ± 0.2 | – | 3 ± 0.1 | 3.2 ± 0.6 | 1.3 ± 0.1 | 3.5 ± 0.9 | 3.5 ± 0.9 | 24.9 ± 4.5 | 6.2 ± 0.3 | 11.9 ± 1 | – | 8.3 ± 0.7 | 10.7 ± 0.5 | 13.7 ± 0.9 | 6.8 ± 0.6 | 11.8 ± 1.2 | 6.9 ± 1 | CC50 (TZM-bl cells): ~61 µM; IC50 [19]: 5.3 ± 0.2 µM; IC50 [20]: 0.61 ± 0.1 µM; IC50 [13]: 12.9 ± 1.5 µM; IC50 [14]: ~81.5 µM; IC50 [16]: 65.1 ± 3.5 µM
